Results from patent US8192962B2, “Processes for detecting toxic substances” (Daikin Industries, Ltd., priority 2001, dated 2012).

Tested on: Genes belonging to other category
Experiment: DNA chip mRNA expression in yeast, genes belonging to other category (Table 9)
Assay type: cell-based, Saccharomyces cerevisiae S288C
How it was run: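 Whole-genome yeast DNA chip hybridization (65° C., >12 h) of Cy-labeled cDNA from S288C cells exposed 2 h at 25° C. to a sub-lethal toxicant dose in YPD; value is intensity relative to chemical-free control.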

Substance: manganese ethylenebis(dithiocarbamate) [(8)]
- The level of expressed mRNA in the presence of chemical substance/The level of expressed mRNA in the absence of chemical substance (yeast gene YAR010C): 1.3
- The level of expressed mRNA in the presence of chemical substance/The level of expressed mRNA in the absence of chemical substance (yeast gene YBL005W-A): 1.0
- The level of expressed mRNA in the presence of chemical substance/The level of expressed mRNA in the absence of chemical substance (yeast gene YBL041W): 1.7
- The level of expressed mRNA in the presence of chemical substance/The level of expressed mRNA in the absence of chemical substance (yeast gene YBL043W): 2.1
- The level of expressed mRNA in the presence of chemical substance/The level of expressed mRNA in the absence of chemical substance (yeast gene YBL078C): 1.6
- The level of expressed mRNA in the presence of chemical substance/The level of expressed mRNA in the absence of chemical substance (yeast gene YBR214W): 0.7
- The level of expressed mRNA in the presence of chemical substance/The level of expressed mRNA in the absence of chemical substance (yeast gene YCL020W): 1.7
- The level of expressed mRNA in the presence of chemical substance/The level of expressed mRNA in the absence of chemical substance (yeast gene YCL027W): 0.6
- The level of expressed mRNA in the presence of chemical substance/The level of expressed mRNA in the absence of chemical substance (yeast gene YCR004C): 1.2
- The level of expressed mRNA in the presence of chemical substance/The level of expressed mRNA in the absence of chemical substance (yeast gene YCR071C): 0.9
- The level of expressed mRNA in the presence of chemical substance/The level of expressed mRNA in the absence of chemical substance (yeast gene YCR088W): 0.5
- The level of expressed mRNA in the presence of chemical substance/The level of expressed mRNA in the absence of chemical substance (yeast gene YDL008W): 1.2
- The level of expressed mRNA in the presence of chemical substance/The level of expressed mRNA in the absence of chemical substance (yeast gene YDL238C): 5.8
- The level of expressed mRNA in the presence of chemical substance/The level of expressed mRNA in the absence of chemical substance (yeast gene YDR055W): 1.6
- The level of expressed mRNA in the presence of chemical substance/The level of expressed mRNA in the absence of chemical substance (yeast gene YDR084C): 0.7
- The level of expressed mRNA in the presence of chemical substance/The level of expressed mRNA in the absence of chemical substance (yeast gene YDR085C): 2.0
- The level of expressed mRNA in the presence of chemical substance/The level of expressed mRNA in the absence of chemical substance (yeast gene YDR104C): 1.3
- The level of expressed mRNA in the presence of chemical substance/The level of expressed mRNA in the absence of chemical substance (yeast gene YDR115W): 1.3
- The level of expressed mRNA in the presence of chemical substance/The level of expressed mRNA in the absence of chemical substance (yeast gene YDR259C): 1.4
- The level of expressed mRNA in the presence of chemical substance/The level of expressed mRNA in the absence of chemical substance (yeast gene YDR315C): 1.4
- The level of expressed mRNA in the presence of chemical substance/The level of expressed mRNA in the absence of chemical substance (yeast gene YDR358W): 1.2
- The level of expressed mRNA in the presence of chemical substance/The level of expressed mRNA in the absence of chemical substance (yeast gene YDR388W): 0.8
- The level of expressed mRNA in the presence of chemical substance/The level of expressed mRNA in the absence of chemical substance (yeast gene YDR432W): 0.5
- The level of expressed mRNA in the presence of chemical substance/The level of expressed mRNA in the absence of chemical substance (yeast gene YDR481C): 1.0
- The level of expressed mRNA in the presence of chemical substance/The level of expressed mRNA in the absence of chemical substance (yeast gene YDR510W): 1.5
- The level of expressed mRNA in the presence of chemical substance/The level of expressed mRNA in the absence of chemical substance (yeast gene YEL042W): 0.7
- The level of expressed mRNA in the presence of chemical substance/The level of expressed mRNA in the absence of chemical substance (yeast gene YEL066W): 1.4
- The level of expressed mRNA in the presence of chemical substance/The level of expressed mRNA in the absence of chemical substance (yeast gene YER039C): 0.7
- The level of expressed mRNA in the presence of chemical substance/The level of expressed mRNA in the absence of chemical substance (yeast gene YER107C): 0.8
- The level of expressed mRNA in the presence of chemical substance/The level of expressed mRNA in the absence of chemical substance (yeast gene YER130C): 1.2
- The level of expressed mRNA in the presence of chemical substance/The level of expressed mRNA in the absence of chemical substance (yeast gene YFL022C): 0.8
- The level of expressed mRNA in the presence of chemical substance/The level of expressed mRNA in the absence of chemical substance (yeast gene YFL028C): 1.5
- The level of expressed mRNA in the presence of chemical substance/The level of expressed mRNA in the absence of chemical substance (yeast gene YFL043C): 1.0
- The level of expressed mRNA in the presence of chemical substance/The level of expressed mRNA in the absence of chemical substance (yeast gene YGL158W): 1.3
- The level of expressed mRNA in the presence of chemical substance/The level of expressed mRNA in the absence of chemical substance (yeast gene YGL229C): 0.7
- The level of expressed mRNA in the presence of chemical substance/The level of expressed mRNA in the absence of chemical substance (yeast gene YGR136W): 1.3
- The level of expressed mRNA in the presence of chemical substance/The level of expressed mRNA in the absence of chemical substance (yeast gene YGR189C): 1.0
- The level of expressed mRNA in the presence of chemical substance/The level of expressed mRNA in the absence of chemical substance (yeast gene YGR213C): 2.0
- The level of expressed mRNA in the presence of chemical substance/The level of expressed mRNA in the absence of chemical substance (yeast gene YGR257C): 1.0
- The level of expressed mRNA in the presence of chemical substance/The level of expressed mRNA in the absence of chemical substance (yeast gene YHR004C): 0.9
- The level of expressed mRNA in the presence of chemical substance/The level of expressed mRNA in the absence of chemical substance (yeast gene YHR071W): 1.7
- The level of expressed mRNA in the presence of chemical substance/The level of expressed mRNA in the absence of chemical substance (yeast gene YHR139C): 1.3
- The level of expressed mRNA in the presence of chemical substance/The level of expressed mRNA in the absence of chemical substance (yeast gene YHR142W): 1.3
- The level of expressed mRNA in the presence of chemical substance/The level of expressed mRNA in the absence of chemical substance (yeast gene YIL123W): 0.6
- The level of expressed mRNA in the presence of chemical substance/The level of expressed mRNA in the absence of chemical substance (yeast gene YIL140W): 0.7
- The level of expressed mRNA in the presence of chemical substance/The level of expressed mRNA in the absence of chemical substance (yeast gene YJL073W): 1.0
- The level of expressed mRNA in the presence of chemical substance/The level of expressed mRNA in the absence of chemical substance (yeast gene YJL089W): 1.1
- The level of expressed mRNA in the presence of chemical substance/The level of expressed mRNA in the absence of chemical substance (yeast gene YJL116C): 1.8
- The level of expressed mRNA in the presence of chemical substance/The level of expressed mRNA in the absence of chemical substance (yeast gene YJR004C): 0.4
- The level of expressed mRNA in the presence of chemical substance/The level of expressed mRNA in the absence of chemical substance (yeast gene YJR086W): 1.1
